Laboratory results from patent US8575179B2, “Dihydropyrazolopyrimidinone derivatives” (MSD K.K., priority 2008, dated 2013).

Tests used:
Wee1 kinase = molecular target: T1, Wee1 kinase (Homo sapiens, UniProt P30291); assay: Wee1 kinase inhibitory effect (Pharmacological Test 1); format: biochemical; conditions: GST-tagged Wee1 kinase, Poly(Lys, Tyr) substrate, 10 μM ATP, 30° C. for 30 minutes
T1 construct: made in house; host or cells: Sf9 insect cells (recombinant baculovirus)
Description: Pharmacological Test 1 (Wee1 Kinase Inhibitory Effect)
A cDNA of Wee1 kinase with glutathione-S-transferase (GST) fused at the amino terminal thereof was inserted into a baculovirus expression vector to construct a recombinant baculovirus, with which cells of an insect cell line Sf9 were infected to overexpress the target protein. The infected cells were collected and lysed, and then the GST-tagged Wee1 kinase protein was adsorbed to a glutathione column and eluted from the column with glutathione, and the active fraction was desalted in a desalting column to give a purified enzyme.
In measurement of the Wee1 kinase activity, a synthetic peptide, Poly(Lys, Tyr) hydrobromide (Lys:Tyr (4:1)) purchased from Sigma was used as the substrate.
The amount of the reaction mixture was 21.1 μL; and the composition of the reaction buffer was 50 mM Tris-HCl buffer (pH 7.4)/10 mM magnesium chloride/1 mM dithiothreitol. The purified Wee1 kinase, 2.5 μg of the substrate peptide, 10 μM of non-labeled adenosine triphosphate (ATP) and 1 μCi of [γ-^33P]-labeled ATP (2500 Ci/mmol or more) were added to the reaction buffer, and the resulting mixture was incubated at 30° C. for 30 minutes. Thereafter, 10 μL of 350 mM phosphate buffer was added to the reaction system to stop the reaction. The substrate peptide was adsorbed on a P81 paper filter 96-well plate and the plate was washed several times with 130 mM phosphate buffer, and the radioactivity thereof was counted using a liquid scintillation counter. The [γ-^33P]-labeled ATP was purchased from Amersham Bioscience, Ltd.
The addition of a test compound to the reaction system was carried out by preparing a series of dilutions of the compound with dimethyl sulfoxide (DMSO) and adding 1.1 μL of each dilution to the reaction system. As a control, 1.1 μL of DMSO was added to the reaction system.

[1] = test system: Cdc2 (Cdk1) tyrosine-15 phosphorylation in NCI-H1299 cells; assay: Inhibitory effect on Cdc2 (Cdk1) tyrosine-15 phosphorylation in cells (Pharmacological Test 2, ELISA); format: cell-based; conditions: Homo sapiens; NCI-H1299 cells pretreated with 200 nM camptothecin for 16 hours, test compound with nocodazole for 8 hours; ratio of tyrosine-15-phosphorylated Cdc2 to Cdc2
Description: Pharmacological Test 2 (Method for Determining Drug Effect Using Cells (Inhibitory Effect on Cdc2 (Cdk1) Tyrosine-15 Phosphorylation))
Fetal bovine serum (FBS) was purchased from Morgate, Inc.; an RPMI-1640 medium and a DMEM medium were purchased from Invitrogen, Inc.; camptothecin was purchased from Sigma Co.; gemcitabine was purchased from Eli Lilly Japan K.K.; nocodazole and protease inhibitor cocktail were purchased from Sigma Co.; a rabbit anti-Cdc2 antibody and a mouse anti-Cdc2 antibody were purchased from Santa Cruz Biotechnology, Inc.; a rabbit anti-tyrosine-15-phosphorylated Cdc2 antibody and a horseradish peroxidase-labeled anti-mouse IgG antibody were purchased from Cell Signaling Technology, Inc.; and Sure Blue Reserve TMB peroxidase substrate was purchased from Kirkegaard & Perry Laboratories, Inc.
A human non-small cell lung cancer cell line (NCI-H1299) and a human colon cancer cell line (WiDr) can be obtained from American Type Culture Collection (ATCC).
In the method using NCI-H1299 cells, the cells were suspended in an RPMI-1640 medium supplemented with 10% FBS, and 100 μl, of the resulting cell suspension was dispensed in a Nunclon Delta treated 96-well plastic plate purchased from Nunc, Inc. at a density of 2000 cells per well, and the plate was incubated overnight at 37° C. under an atmosphere of 5% CO2 and 95% air. Camptothecin was dissolved in dimethyl sulfoxide (DMSO) and further the resulting solution was diluted with an RPMI-1640 medium supplemented with 10% FBS. Then, 50 μL of the diluted solution was added to each well of the plate in which the cells were seeded in advance such that the final concentration of camptothecin was 200 nM, and the plate was incubated at 37° C. under an atmosphere of 5% CO2 and 95% air for 16 hours. A test compound was serially diluted with DMSO, and further diluted with an RPMI-1640 medium supplemented with 10% FBS containing 4000 nM nocodazole. Then, 50 μL of the test compound solution was added to each well of the plate in which the cells treated with camptothecin were seeded, and the plate was incubated at 37° C. under an atmosphere of 5% CO2 and 95% air for 8 hours. Then, the culture medium was removed from each well and 100 μL of a cell lysis buffer was added to each well, and the plate was shaken at 4° C. for 2 hours, and thereafter the liquid in the plate was frozen at −80° C. and then thawed, which was used as a lysed cell solution. Cdc2 and tyrosine-15-phosphorylated Cdc2 in this lysed cell solution were measured by an enzyme-linked immunosorbent assay (ELISA method), and a ratio of tyrosine-15-phosphorylated Cdc2 to Cdc2 was calculated to determine a 50% effective concentration (EC50, nM) of the test compound for inhibition of phosphorylation in cells. […]

T1 sequence (P30291 whole entry): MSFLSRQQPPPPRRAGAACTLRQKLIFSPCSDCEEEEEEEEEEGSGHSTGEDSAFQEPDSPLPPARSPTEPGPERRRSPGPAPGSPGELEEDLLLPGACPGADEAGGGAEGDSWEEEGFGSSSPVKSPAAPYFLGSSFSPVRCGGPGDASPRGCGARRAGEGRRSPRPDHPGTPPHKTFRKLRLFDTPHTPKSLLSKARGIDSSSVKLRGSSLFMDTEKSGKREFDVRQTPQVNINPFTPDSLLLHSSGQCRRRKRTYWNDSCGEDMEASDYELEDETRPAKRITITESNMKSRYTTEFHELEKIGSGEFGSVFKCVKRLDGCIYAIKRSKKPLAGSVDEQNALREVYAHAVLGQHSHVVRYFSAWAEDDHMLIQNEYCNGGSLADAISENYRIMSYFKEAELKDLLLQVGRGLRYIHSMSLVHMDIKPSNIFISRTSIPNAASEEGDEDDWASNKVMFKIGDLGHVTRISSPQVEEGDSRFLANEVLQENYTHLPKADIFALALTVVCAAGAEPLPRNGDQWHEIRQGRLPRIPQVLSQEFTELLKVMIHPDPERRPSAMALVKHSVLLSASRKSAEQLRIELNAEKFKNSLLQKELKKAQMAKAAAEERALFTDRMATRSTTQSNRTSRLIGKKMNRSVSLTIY

SMILES	IC50 (Wee1 kinase)	IC50 [1]
Cc1cc(Nc2ncc3c(=O)n(-c4c(Cl)cccc4Cl)c(=O)[nH]c3n2)ccc1N1CCN(C)CC1 [Example 1, 3-(2,6-dichlorophenyl)-7-{[3-methyl-4-(4-methylpiperazin-1-yl)phenyl]amino}pyrimido[4,5-d]pyrimidine-2,4(1H,3H)-dione]	7 nM	87 nM
Cc1cc(Nc2ncc3c(=O)n(-c4c(C)cccc4Cl)c(=O)[nH]c3n2)ccc1N1CCN(C)CC1 [Example 2, 3-(2-chloro-6-methylphenyl)-7-{[3-methyl-4-(4-methylpiperazin-1-yl)phenyl]amino}pyrimido[4,5-d]pyrimidine-2,4(1H,3H)-dione]	9 nM	79 nM
Cc1cc(Nc2ncc3c(=O)n(-c4c(Cl)cccc4Cl)c(=O)n(C)c3n2)ccc1N1CCN(C)CC1 [Example 3, 3-(2,6-dichlorophenyl)-1-methyl-7-{[3-methyl-4-(4-methylpiperazin-1-yl)phenyl]amino}pyrimido[4,5-d]pyrimidine-2,4(1H,3H)-dione]	8 nM	45 nM
CN1CCN(c2ccc(Nc3ncc4c(=O)n(-c5c(Cl)cccc5Cl)c(=O)n(C)c4n3)cc2)CC1 [Example 4, 3-(2,6-dichlorophenyl)-1-methyl-7-{[4-(4-methylpiperazin-1-yl)phenyl]amino}pyrimido[4,5-d]pyrimidine-2,4(1H,3H)-dione]	33 nM	33 nM
CC(=O)N1CCN(c2ccc(Nc3ncc4c(=O)n(-c5c(Cl)cccc5Cl)c(=O)[nH]c4n3)cc2C)CC1 [Example 9, 7-{[4-(4-acetylpiperazin-1-yl)-3-methylphenyl]amino}-3-(2,6-dichlorophenyl)pyrimido[4,5-d]pyrimidine-2,4(1H,3H)-dione]	4 nM	

The next lines start with the values.

IC50 (Wee1 kinase)	IC50 [1]	SMILES
4 nM		CN1CCCN(c2ccc(Nc3ncc4c(=O)n(-c5c(Cl)cccc5Cl)c(=O)[nH]c4n3)cc2)CC1 [Example 31, 3-(2,6-dichlorophenyl)-7-{[4-(4-methyl-1,4-diazepan-1-yl)phenyl]amino}pyrimido[4,5-d]pyrimidine-2,4(1H,3H)-dione]
6 nM		O=C(CO)N1CCN(c2ccc(Nc3ncc4c(=O)n(-c5c(Cl)cccc5Cl)c(=O)[nH]c4n3)cc2)CC1 [Example 32, 3-(2,6-dichlorophenyl)-7-({4-[4-(hydroxyacetyl)piperazin-1-yl]phenyl}amino)pyrimido[4,5-d]pyrimidine-2,4(1H,3H)-dione]
9 nM		COC(C)(C)C(=O)N1CCN(c2ccc(Nc3ncc4c(=O)n(-c5c(Cl)cccc5Cl)c(=O)[nH]c4n3)cc2)CC1 [Example 33, 3-(2,6-dichlorophenyl)-7-({4-[4-(2-methoxy-2-methylpropionyl)piperazin-1-yl]phenyl}amino)pyrimido[4,5-d]pyrimidine-2,4(1H,3H)-dione]
